ChEMBL document CHEMBL3045991, “Synthesis of new 2(1H)-quinoxalinone derivatives for antimicrobial and antiinflammatory evaluation” (Med Chem Res, 2009)

Tests used:
[1] = system: Staphylococcus aureus; experiment: Antibacterial activity against Staphylococcus aureus at 10 mg/ml by cup-plate technique; assay type: functional; details: read-out: DIZ
[2] = system: Bacillus subtilis; experiment: Antibacterial activity against Bacillus subtilis at 10 mg/ml by cup-plate technique; assay type: functional; details: read-out: DIZ
[3] = system: Escherichia coli; experiment: Antibacterial activity against Escherichia coli at 10 mg/ml by cup-plate technique; assay type: functional; details: read-out: DIZ
[4] = system: Rattus norvegicus; experiment: Anti-inflammatory activity in Rattus norvegicus albino (rat) assessed as reduction of carrageenan-induced paw edema thickness at 0.9 mg/100 g body weight, ip administered 1 hr before carrageenan-challenge measured after 3 hr (reference value: 0.88 +/- 0.03 mm); assay type: functional
[5] = system: Rattus norvegicus; experiment: Gastrointestinal toxicity in Rattus norvegicus albino (rat) assessed as ulcer index at 0.9 mg/100 g body weight, po qd; assay type: organism-based; details: in vivo
[6] = system: Rattus norvegicus; experiment: Gastrointestinal toxicity in Rattus norvegicus albino (rat) assessed as incidence of gastric ulceration at 0.9 mg/100 g body weight, po qd; assay type: organism-based, Stomach; details: in vivo
[7] = system: Rattus norvegicus; experiment: Anti-inflammatory activity in Rattus norvegicus albino (rat) assessed as reduction of carrageenan-induced paw edema thickness at 0.9 mg/100 g body weight, ip administered 1 hr before carrageenan-challenge measured after 4 hr (reference value: 0.88 +/- 0.03 mm); assay type: functional
[8] = system: Rattus norvegicus; experiment: Anti-inflammatory activity in Rattus norvegicus albino (rat) assessed as reduction of carrageenan-induced paw edema thickness at 0.9 mg/100 g body weight, ip administered 1 hr before carrageenan-challenge measured after 1 hr (reference value: 0.77 +/- 0.02 mm); assay type: functional
[9] = system: Rattus norvegicus; experiment: Anti-inflammatory activity in Rattus norvegicus albino (rat) assessed as reduction of carrageenan-induced paw edema thickness at 0.9 mg/100 g body weight, ip administered 1 hr before carrageenan-challenge measured after 2 hr (reference value: 0.88 +/- 0.03 mm); assay type: functional

| SMILES | zone of inhibition at 10000 µg/mL [1] | zone of inhibition at 10000 µg/mL [2] | zone of inhibition at 10000 µg/mL [3] | Activity [4] | UI [5] | Activity [6] | Activity [7] | Activity [8] | Activity [9] |
| --- | --- | --- | --- | --- | --- | --- | --- | --- | --- |
| O=C(Cc1nc2ccccc2[nH]c1=O)NNC(=S)Nc1ccccc1 | 10 mm | 9 mm | 8 mm | – | – | – | – | – | – |
| O=C(O)c1cn(C2CC2)c2cc(N3CCNCC3)c(F)cc2c1=O [CIPROFLOXACIN] | 17 mm | 19 mm | 12 mm | – | – | – | – | – | – |
| Cc1ccc(-c2cc(C(F)(F)F)nn2-c2ccc(S(N)(=O)=O)cc2)cc1 [CELECOXIB] | – | – | – | 0.45 mm | 0 | 0% | 0.5 mm | 0.45 mm | 0.42 mm |
| O=c1[nH]c2ccccc2nc1Cc1nnc(S)n1-c1ccccc1 | – | – | – | 0.52 mm | 0 | 0% | 0.47 mm | 0.55 mm | 0.55 mm |
| Nn1c(S)nnc1Cc1nc2ccccc2[nH]c1=O | – | – | – | 0.6 mm | 0 | 0% | 0.62 mm | 0.67 mm | 0.62 mm |
| O=C1NC2CCCCC2N=C1/C=N/Nc1ccc(Cl)cc1 (stereo not drawn) | 16 mm | 15 mm | 6 mm | – | – | – | – | – | – |
| O=C1NC2CCCCC2N=C1/C=N/Nc1ccc(Br)cc1 (stereo not drawn) | 13 mm | 11 mm | 8 mm | – | – | – | – | – | – |
| Cc1ccc(N/N=C/C2=NC3CCCCC3NC2=O)cc1 (stereo not drawn) | 6 mm | 7 mm | 5 mm | – | – | – | – | – | – |
| CCn1c(S)nnc1Cc1nc2ccccc2[nH]c1=O | – | – | – | 0.52 mm | 0 | 0% | 0.67 mm | 0.5 mm | 0.5 mm |
| O=C(CC1=NC2CCCCC2NC1=O)NN1C(=O)c2ccccc2C1=O (stereo not drawn) | – | – | 6 mm | – | – | – | – | – | – |
| O=C(Cc1nc2ccccc2[nH]c1=O)Nn1c(-c2ccccc2)csc1=S | – | – | – | 0.55 mm | 240 | 80% | 0.52 mm | 0.57 mm | 0.55 mm |
| COc1ccc2c(c1)c(CC(=O)O)c(C)n2C(=O)c1ccc(Cl)cc1 [INDOMETHACIN] | – | – | – | – | 500 | 100% | – | – | – |
| O=C(Cc1nc2ccccc2[nH]c1=O)Nn1c(-c2ccc(Cl)cc2)csc1=S | – | – | – | 0.47 mm | 0 | 0% | 0.45 mm | 0.55 mm | 0.5 mm |
| C=CCNC(=S)NNC(=O)Cc1nc2ccccc2[nH]c1=O | 9 mm | 8 mm | 7 mm | – | – | – | – | – | – |
| O=C(CC1=NC2CCCCC2NC1=O)NNC(=S)Nc1ccccc1 (stereo not drawn) | 16 mm | 18 mm | 12 mm | – | – | – | – | – | – |
| O=C1NC2CCCCC2N=C1/C=N/Nc1ccc(F)cc1 (stereo not drawn) | 16 mm | 17 mm | 7 mm | – | – | – | – | – | – |
| C=CCNC(=S)NNC(=O)CC1=NC2CCCCC2NC1=O (stereo not drawn) | 12 mm | 11 mm | 9 mm | – | – | – | – | – | – |
| O=c1[nH]c2ccccc2nc1Cc1nnc(S)o1 | 11 mm | 10 mm | – | 0.6 mm | 240 | 80% | 0.52 mm | 0.57 mm | 0.52 mm |
| Cc1ccc(-c2csc(=S)n2NC(=O)Cc2nc3ccccc3[nH]c2=O)cc1 | – | – | – | 0.6 mm | 0 | 0% | 0.55 mm | 0.7 mm | 0.67 mm |
| O=C1NC2CCCCC2N=C1/C=N/Nc1ccccc1 (stereo not drawn) | 6 mm | 8 mm | 4 mm | – | – | – | – | – | – |
